Results taken from ChEMBL document CHEMBL3885861, “Open TG-GATES”.

Species on record: Rattus norvegicus
Experiment: Open TG-GATES - Regimen: Daily Repeat
Type: toxicity, organism-based, Sprague-Dawley
Design: regimen Daily Repeat, gender Male, age 6 weeks
Settings: in vivo, po, route gavage; for APTT / Bas / Eos / Fbg / Hb / Ht / Lym / MCH / MCHC / MCV / Mono / Neu / PT / Plat / RBC / Ret / WBC: tissue Blood; for KIDNEY_L / KIDNEY_R / KIDNEY_TOTAL: tissue Kidney; for LIVER: tissue Liver; for A/G / ALP / ALT / AST / BUN / CRE / Ca / Cl / DBIL / GLC / IP / K / LDH / Na / PL / RALB / TBIL / TC / TG / TP / gamma-GTP: tissue Plasma
[1] = 0 mg/kg, 72 h, dose level Control, time 3 day
[2] = 0 mg/kg, […], dose level Control, time 7 day
[3] = 0 mg/kg, […], dose level Control, time 14 day
[4] = 0 mg/kg, […], dose level Control, time 28 day
[5] = 20 mg/kg, 72 h, dose level Low, time 3 day
[6] = 20 mg/kg, […], dose level Low, time 7 day
[7] = 20 mg/kg, […], dose level Low, time 14 day
[8] = 20 mg/kg, […], dose level Low, time 28 day

## CC(CN1c2ccccc2Sc2ccccc21)N(C)C (centres undefined) [PROMETHAZINE]
[1]
  TERMINAL_BW: 230.6 g
  APTT: 22.8 s
  Bas: 0%
  Eos: 1%
  Fbg: 309 mg/dL
  Hb: 13.2 g/dL
  Ht: 40.1%
  Lym: 81.2%
  MCH: 20.4 pg
  MCHC: 33%
  MCV: 61.9 fL
  Mono: 2.8%
  Neu: 14.5%
  PT: 16.1 s
  Plat: 117 x10_4/uL
  RBC: 647.8 x10_4/ul
  Ret: 6%
  WBC: 94 x10_2/uL
  KIDNEY_L: 1 g
  KIDNEY_R: 1.1 g
  KIDNEY_TOTAL: 2.1 g
  LIVER: 11.1 g
  A/G: 1.3
  ALP: 1577 IU/L
  ALT: 40 IU/L
  AST: 71.8 IU/L
  BUN: 17 mg/dL
  CRE: 0.2 mg/dL
  Ca: 10.5 mg/dL
  Cl: 105.2 meq/L
  DBIL: 0 mg/dL
  GLC: 195.2 mg/dL
  IP: 6.8 mg/dL
  K: 4.6 meq/L
  LDH: 177 IU/L
  Na: 141.2 meq/L
  PL: 161 mg/dL
  RALB: 3.1 g/dL
  TBIL: 0.005 mg/dL
  TC: 86.8 mg/dL
  TG: 109.8 mg/dL
  TP: 5.5 g/dL
  gamma-GTP: 1.8 IU/L
[2]
  TERMINAL_BW: 267.8 g
  APTT: 22.2 s
  Bas: 0%
  Eos: 0.8%
  Fbg: 293.8 mg/dL
  Hb: 12.9 g/dL
  Ht: 39.1%
  Lym: 84.2%
  MCH: 20.4 pg
  MCHC: 33%
  MCV: 61.7 fL
  Mono: 2.2%
  Neu: 12.2%
  PT: 16.3 s
  Plat: 105 x10_4/uL
  RBC: 633.4 x10_4/ul
  Ret: 6.3%
  WBC: 131.7 x10_2/uL
  KIDNEY_L: 1.2 g
  KIDNEY_R: 1.2 g
  KIDNEY_TOTAL: 2.3 g
  LIVER: 12.3 g
  A/G: 1.3
  ALP: 1379.8 IU/L
  ALT: 42.2 IU/L
  AST: 73.2 IU/L
  BUN: 17.6 mg/dL
  CRE: 0.2 mg/dL
  Ca: 10.7 mg/dL
  Cl: 104.6 meq/L
  DBIL: 0 mg/dL
  GLC: 205.2 mg/dL
  IP: 7.7 mg/dL
  K: 4.6 meq/L
  LDH: 212.4 IU/L
  Na: 141.2 meq/L
  PL: 133.6 mg/dL
  RALB: 3.1 g/dL
  TBIL: 0.012 mg/dL
  TC: 64.4 mg/dL
  TG: 89.4 mg/dL
  TP: 5.4 g/dL
  gamma-GTP: 2 IU/L
[3]
  TERMINAL_BW: 326 g
  APTT: 23.3 s
  Bas: 0%
  Eos: 1%
  Fbg: 317.8 mg/dL
  Hb: 14.1 g/dL
  Ht: 41.4%
  Lym: 80.2%
  MCH: 20.7 pg
  MCHC: 34%
  MCV: 60.8 fL
  Mono: 2%
  Neu: 15.8%
  PT: 16 s
  Plat: 114.3 x10_4/uL
  RBC: 681 x10_4/ul
  Ret: 5.1%
  WBC: 127.7 x10_2/uL
  KIDNEY_L: 1.2 g
  KIDNEY_R: 1.2 g
  KIDNEY_TOTAL: 2.5 g
  LIVER: 15.1 g
  A/G: 1.2
  ALP: 1370.6 IU/L
  ALT: 40 IU/L
  AST: 70.4 IU/L
  BUN: 18.8 mg/dL
  CRE: 0.2 mg/dL
  Ca: 10.8 mg/dL
  Cl: 105.4 meq/L
  DBIL: 0 mg/dL
  GLC: 201 mg/dL
  IP: 7 mg/dL
  K: 4.3 meq/L
  LDH: 162.6 IU/L
  Na: 142.2 meq/L
  PL: 136.8 mg/dL
  RALB: 3.2 g/dL
  TBIL: 0.002 mg/dL
  TC: 66 mg/dL
  TG: 133 mg/dL
  TP: 5.9 g/dL
  gamma-GTP: 3 IU/L
[4]
  TERMINAL_BW: 402.8 g
  APTT: 22.7 s
  Bas: 0%
  Eos: 0.8%
  Fbg: 341.8 mg/dL
  Hb: 15.1 g/dL
  Ht: 43.8%
  Lym: 80.2%
  MCH: 19.9 pg
  MCHC: 34.6%
  MCV: 57.7 fL
  Mono: 1.8%
  Neu: 16.4%
  PT: 16.4 s
  Plat: 101.8 x10_4/uL
  RBC: 760.2 x10_4/ul
  Ret: 2.9%
  WBC: 124 x10_2/uL
  KIDNEY_L: 1.4 g
  KIDNEY_R: 1.4 g
  KIDNEY_TOTAL: 2.8 g
  LIVER: 16.9 g
  A/G: 1
  ALP: 1347.2 IU/L
  ALT: 42.4 IU/L
  AST: 66.8 IU/L
  BUN: 19.4 mg/dL
  CRE: 0.2 mg/dL
  Ca: 10.4 mg/dL
  Cl: 104.8 meq/L
  DBIL: 0 mg/dL
  GLC: 195.8 mg/dL
  IP: 6.3 mg/dL
  K: 4 meq/L
  LDH: 160.6 IU/L
  Na: 143.2 meq/L
  PL: 149 mg/dL
  RALB: 3 g/dL
  TBIL: 0.006 mg/dL
  TC: 65.8 mg/dL
  TG: 192.8 mg/dL
  TP: 6.2 g/dL
  gamma-GTP: 2.6 IU/L
[5]
  TERMINAL_BW: 231 g
  APTT: 22 s
  Bas: 0%
  Eos: 1%
  Fbg: 314.4 mg/dL
  Hb: 13.3 g/dL
  Ht: 40.4%
  Lym: 77.2%
  MCH: 20.7 pg
  MCHC: 33.1%
  MCV: 62.7 fL
  Mono: 2.4%
  Neu: 18.6%
  PT: 16.2 s
  Plat: 125.4 x10_4/uL
  RBC: 644.6 x10_4/ul
  Ret: 6.8%
  WBC: 97.3 x10_2/uL
  KIDNEY_L: 1 g
  KIDNEY_R: 1.1 g
  KIDNEY_TOTAL: 2.1 g
  LIVER: 11.5 g
  A/G: 1.2
  ALP: 1570.4 IU/L
  ALT: 48.2 IU/L
  AST: 75.2 IU/L
  BUN: 17.2 mg/dL
  CRE: 0.2 mg/dL
  Ca: 10.8 mg/dL
  Cl: 105.4 meq/L
  DBIL: 0 mg/dL
  GLC: 184 mg/dL
  IP: 7.1 mg/dL
  K: 4.3 meq/L
  LDH: 166.4 IU/L
  Na: 142 meq/L
  PL: 155.2 mg/dL
  RALB: 3.1 g/dL
  TBIL: 0.004 mg/dL
  TC: 78.2 mg/dL
  TG: 118.4 mg/dL
  TP: 5.7 g/dL
  gamma-GTP: 2 IU/L
[6]
  TERMINAL_BW: 261 g
  APTT: 22.6 s
  Bas: 0%
  Eos: 0.8%
  Fbg: 282.6 mg/dL
  Hb: 13.4 g/dL
  Ht: 40.4%
  Lym: 84.4%
  MCH: 20.5 pg
  MCHC: 33.3%
  MCV: 61.5 fL
  Mono: 2.4%
  Neu: 11.6%
  PT: 16 s
  Plat: 114.7 x10_4/uL
  RBC: 657.4 x10_4/ul
  Ret: 5.4%
  WBC: 125.4 x10_2/uL
  KIDNEY_L: 1.1 g
  KIDNEY_R: 1.1 g
  KIDNEY_TOTAL: 2.2 g
  LIVER: 12.4 g
  A/G: 1.3
  ALP: 1595.8 IU/L
  ALT: 46 IU/L
  AST: 79.8 IU/L
  BUN: 18.2 mg/dL
  CRE: 0.2 mg/dL
  Ca: 10.5 mg/dL
  Cl: 106.4 meq/L
  DBIL: 0 mg/dL
  GLC: 185.2 mg/dL
  IP: 6.7 mg/dL
  K: 4.3 meq/L
  LDH: 169.2 IU/L
  Na: 141.6 meq/L
  PL: 133 mg/dL
  RALB: 3.1 g/dL
  TBIL: 0.004 mg/dL
  TC: 66.2 mg/dL
  TG: 113.4 mg/dL
  TP: 5.5 g/dL
  gamma-GTP: 1.8 IU/L
[7]
  TERMINAL_BW: 292.3 g
  APTT: 23.8 s
  Bas: 0%
  Eos: 1%
  Fbg: 315 mg/dL
  Hb: 14.7 g/dL
  Ht: 42.6%
  Lym: 79.6%
  MCH: 19.8 pg
  MCHC: 34.4%
  MCV: 57.6 fL
  Mono: 2%
  Neu: 16.6%
  PT: 15.8 s
  Plat: 112 x10_4/uL
  RBC: 740.6 x10_4/ul
  Ret: 4.2%
  WBC: 109.3 x10_2/uL
  KIDNEY_L: 1.1 g
  KIDNEY_R: 1.1 g
  KIDNEY_TOTAL: 2.3 g
  LIVER: 13.1 g
  A/G: 1.2
  ALP: 1261.8 IU/L
  ALT: 45.8 IU/L
  AST: 71.4 IU/L
  BUN: 18.6 mg/dL
  CRE: 0.2 mg/dL
  Ca: 10.6 mg/dL
  Cl: 106 meq/L
  DBIL: 0 mg/dL
  GLC: 182.6 mg/dL
  IP: 6.2 mg/dL
  K: 4.1 meq/L
  LDH: 128.4 IU/L
  Na: 142.6 meq/L
  PL: 146.6 mg/dL
  RALB: 3.2 g/dL
  TBIL: 0.004 mg/dL
  TC: 71.6 mg/dL
  TG: 116.6 mg/dL
  TP: 5.8 g/dL
  gamma-GTP: 2.6 IU/L
[8]
  TERMINAL_BW: 387.7 g
  APTT: 23.6 s
  Bas: 0%
  Eos: 1%
  Fbg: 297.6 mg/dL
  Hb: 15 g/dL
  Ht: 43.5%
  Lym: 79.2%
  MCH: 19.1 pg
  MCHC: 34.6%
  MCV: 55.2 fL
  Mono: 1.6%
  Neu: 17.4%
  PT: 16.3 s
  Plat: 96.2 x10_4/uL
  RBC: 787.8 x10_4/ul
  Ret: 2.3%
  WBC: 118.8 x10_2/uL
  KIDNEY_L: 1.4 g
  KIDNEY_R: 1.4 g
  KIDNEY_TOTAL: 2.7 g
  LIVER: 15.9 g
  A/G: 1.1
  ALP: 1046.2 IU/L
  ALT: 48.6 IU/L
  AST: 71.6 IU/L
  BUN: 19.8 mg/dL
  CRE: 0.2 mg/dL
  Ca: 10.4 mg/dL
  Cl: 106.4 meq/L
  DBIL: 0 mg/dL
  GLC: 184.6 mg/dL
  IP: 5.9 mg/dL
  K: 4 meq/L
  LDH: 136 IU/L
  Na: 143.2 meq/L
  PL: 137.4 mg/dL
  RALB: 3.1 g/dL
  TBIL: 0.006 mg/dL
  TC: 65.4 mg/dL
  TG: 139.8 mg/dL
  TP: 6 g/dL
  gamma-GTP: 2 IU/L
